# Laboratory results: patent publication US20240366644A1, “ANTI-INFLAMMATORY APPLICATION OF GINSENOSIDE RD” (priority 2022, published 2024)
# Assays:
# [1] = system: mice infected with COVID-19 Delta virus; test: Lung histopathology of mice infected with COVID-19 Delta virus; assay type: in vivo, hACE2 transgenic C57BL/6 mice; details: for Interstitial pneumonia Mild / Interstitial pneumonia Moderate / Interstitial pneumonia Severe / Pulmonary hemorrhage Mild / Pulmonary hemorrhage Moderate / Pulmonary hemorrhage Severe: number of mice with this degree (four per group), five days
# [2] = system: Chronic Obstructive Pulmonary Disease in Rats; test: Lung pathomorphology of rats with chronic obstructive pulmonary disease; assay type: in vivo, SD rats
# [3] = system: mice with acute lung injury; test: Inflammatory factors (ELISA) in lung tissue and alveolar lavage fluid of mice with LPS acute lung injury; assay type: in vivo, Balb/c mice; details: for IL-1β in alveolar lavage fluid / IL-1β in lung tissue / IL-6 in alveolar lavage fluid / IL-6 in lung tissue / IL-18 in alveolar lavage fluid / IL-18 in lung tissue / TNF-α in alveolar lavage fluid / TNF-α in lung tissue: 24 h after modeling
# Procedure: Balb/c male mice, weighing 20-22 g, were randomly divided into five groups according to body weights, with eight mice in each group: a blank control group (propylene glycol-0.5% carboxymethylcellulose sodium), a model group (LPS, 15 mg/kg), a ginsenoside Rd low-dose group (10 mg/kg), a ginsenoside Rd high-dose group (20 mg/kg), and a Dexamethasone group (5 mg/kg). Mice in each group were intraperitoneally injected; after 1 h of administration, except for the blank control group, the mice in each group were intratracheally instilled with 20 μg of LPS for modeling; and the blank control group was intratracheally instilled with an equal volume of PBS.
# After 1 h of administration, a mouse ALI model was established; each mouse was intraperitoneally injected with sodium pentobarbital at 30 mg/kg, anesthetized and fixed on an operating table dorsally; skin preparation was carried out on the neck; the skin was incised to expose the trachea; 20 μg of LPS was instilled into the trachea using a microglass syringe; and then the mouse was gently rotated head up on the operating table, such that the instilled liquid was evenly distributed in the mouse lungs, and the skin incision was sutured.
# After 24 h of modeling, anesthetized mice were intraperitoneally injected with sodium pentobarbital at 30 mg/kg; lung tissues of the mice were taken and rinsed repeatedly in pre-cooled normal saline; the lung tissues were blood-removed, wiped with filter paper, weighed, and added with normal saline according to a ratio of 1:9 (W:V=1 g:9 ml); a tissue homogenate was prepared with a homogenization machine under an ice water bath; and a supernatant of mouse lung tissue homogenate was taken.
# The mouse was anesthetized, and the trachea was separated; the whole lung was lavaged with 0.5 ml of pre-cooled normal saline, stayed for 1 min, and slowly pumped back with a syringe, and this process was repeated three times; and BLAF was collected, and centrifuged for 15 min at 4° C. and 1600 rpm/min.
# In strict accordance with the operating instructions of an enzyme-linked immunosorbent assay kit (ELISA), the contents of TNF-α, IL-1β, IL-6 and IL-18 in the supernatant of mouse lung tissue homogenate and the BLAF supernatant were detected.
# [4] = system: mice with chronic bronchial asthma; test: Serum IL-4 and INF-γ in OVA-sensitised mice with chronic bronchial asthma; assay type: in vivo, BALB/c mice; details: for IL-4 in serum / INF-γ in serum: seven days, 24 h after the last excitation
# Procedure: After adaptive feeding (20-25° C., a humidity of 50-60%) for one week, the mice were randomly divided into a blank group, a model group, a ginsenoside Rd high-dose group, and a ginsenoside Rd low-dose group, with ten […] in each group.
# Except for the blank group, the mice in the other groups were intraperitoneally injected with 0.2 ml of sensitization solution (containing 50 μg of OVA) on the Day 1, Day 8 and Day 15, respectively. Starting on Day 22, the mice in each group were placed in a nebulizer and inhaled with 2% OVA for exciting asthma. This inhalation was performed once a day, 45 min each time, for seven consecutive days.
# Administration by gavage was performed 30 min before each asthma stimulation, once a day for seven consecutive days. The blank group and the model group were administrated with normal saline by gavage, the high-dose group was administrated with 10 mg/kg ginsenoside Rd by gavage, and the low-dose group was administrated with 5 mg/kg ginsenoside Rd by gavage.
# 24 h after the last excitation, the mice were sampled, blood was collected from the eyeballs and separated to obtain serum, and IL-4 and INF-γ in the serum were detected.
# [5] = system: COVID-19 Delta virus-infected mice; test: IL-1β and MCP-1 expression (RT-qPCR) in lung homogenates of COVID-19 Delta virus-infected mice; assay type: in vivo, hACE2 transgenic C57BL/6 mice; details: for IL-1β expression level in lung homogenate / MCP-1 expression level in lung homogenate: mRNA, blank group 1.00, Day 5 of infection
# [6] = high-dose 20 mg/kg gavage once a day
# [7] = low-dose 10 mg/kg gavage once a day
# [8] = 10 mg/kg intraperitoneal 1 h before LPS
# [9] = 20 mg/kg intraperitoneal 1 h before LPS
# [10] = high-dose 10 mg/kg gavage once a day
# [11] = low-dose 5 mg/kg gavage once a day
smiles,measurement,setting,value
"CC(C)=CCC[C@](C)(O[C@@H]1O[C@H](CO)[C@@H](O)[C@H](O)[C@H]1O)[C@H]1CC[C@]2(C)[C@@H]1[C@H](O)C[C@@H]1[C@@]3(C)CC[C@H](O[C@@H]4O[C@H](CO)[C@@H](O)[C@H](O)[C@H]4O[C@@H]4O[C@H](CO)[C@@H](O)[C@H](O)[C@H]4O)C(C)(C)[C@@H]3CC[C@]12C [Ginsenoside Rd, ginsenoside Rd]",lung lesions caused by COVID-19 Delta virus,"[1]; 10 mg/kg and 20 mg/kg, compared with virus group",good improvement effects on lung lesions
same,pathological improvement of pulmonary hemorrhage and interstitial pneumonia compared with Dexamethasone,[1]; high-dose group 20 mg/kg,better than Dexamethasone
same,Interstitial pneumonia Mild,[1]; [6],4
same,Interstitial pneumonia Moderate,[1]; [6],0
same,Interstitial pneumonia Severe,[1]; [6],0
same,Pulmonary hemorrhage Mild,[1]; [6],4
same,Pulmonary hemorrhage Moderate,[1]; [6],0
same,Pulmonary hemorrhage Severe,[1]; [6],0
same,Interstitial pneumonia Mild,[1]; [7],2
same,Interstitial pneumonia Moderate,[1]; [7],2
same,Interstitial pneumonia Severe,[1]; [7],0
same,Pulmonary hemorrhage Mild,[1]; [7],2
same,Pulmonary hemorrhage Moderate,[1]; [7],2
same,Pulmonary hemorrhage Severe,[1]; [7],0
same,Epithelial cell necrosis Mild,[2]; 5 mg/kg,6
same,Epithelial cell necrosis Moderate,[2]; 5 mg/kg,4
same,Epithelial cell necrosis Severe,[2]; 5 mg/kg,0
same,Interstitial inflammatory cell infiltration Mild,[2]; 5 mg/kg,6
same,Interstitial inflammatory cell infiltration Moderate,[2]; 5 mg/kg,4
same,Interstitial inflammatory cell infiltration Severe,[2]; 5 mg/kg,0
same,Epithelial cell necrosis Mild,[2]; 10 mg/kg,7
same,Epithelial cell necrosis Moderate,[2]; 10 mg/kg,3
same,Epithelial cell necrosis Severe,[2]; 10 mg/kg,0
same,Interstitial inflammatory cell infiltration Mild,[2]; 10 mg/kg,7
same,Interstitial inflammatory cell infiltration Moderate,[2]; 10 mg/kg,3
same,Interstitial inflammatory cell infiltration Severe,[2]; 10 mg/kg,0
same,lung lesions,"[2]; 10 mg/kg and 5 mg/kg, compared with the model group",good improvement effects on lung lesions
same,effect on lung lesions compared with the Simvastatin group,[2]; high-dose group 10 mg/kg,considerable to the Simvastatin group
same,IL-1β in alveolar lavage fluid,[3]; [8],79.63 ± 21.33 ng/L
same,IL-1β in lung tissue,[3]; [8],80.23 ± 18.08 ng/L
same,IL-6 in alveolar lavage fluid,[3]; [8],39.37 ± 9.12 ng/L
same,IL-6 in lung tissue,[3]; [8],84.70 ± 10.84 ng/L
same,IL-18 in alveolar lavage fluid,[3]; [8],81.20 ± 21.27 ng/L
same,IL-18 in lung tissue,[3]; [8],94.03 ± 15.22 ng/L
same,TNF-α in alveolar lavage fluid,[3]; [8],344.09 ± 61.08 ng/L
same,TNF-α in lung tissue,[3]; [8],98.14 ± 14.48 ng/L
same,IL-1β in alveolar lavage fluid,[3]; [9],49.51 ± 6.89 ng/L
same,IL-1β in lung tissue,[3]; [9],30.52 ± 13.42 ng/L
same,IL-6 in alveolar lavage fluid,[3]; [9],29.53 ± 8.99 ng/L
same,IL-6 in lung tissue,[3]; [9],36.81 ± 13.45 ng/L
same,IL-18 in alveolar lavage fluid,[3]; [9],44.64 ± 17.91 ng/L
same,IL-18 in lung tissue,[3]; [9],37.54 ± 15.80 ng/L
same,TNF-α in alveolar lavage fluid,[3]; [9],186.04 ± 75.00 ng/L
same,TNF-α in lung tissue,[3]; [9],46.88 ± 19.52 ng/L
same,"contents of TNF-α, IL-1β, IL-6 and IL-18 in the lung tissues and BLAF",[3]; compared with the model group,significantly reduce
same,"effect on TNF-α, IL-1β, IL-6 and IL-18 contents compared with Dexamethasone","[3]; high-dose group 20 mg/kg, P<0.01",better than that of Dexamethasone
same,IL-4 in serum,[4]; [10],36.11 ± 10.98 pg/mL
same,INF-γ in serum,[4]; [10],102.48 ± 7.81
same,IL-4 in serum,[4]; [11],10.72 ± 16.74 pg/mL
same,INF-γ in serum,[4]; [11],95.34 ± 13.59
same,expression of IL-4,"[4]; mouse, in vivo",reduce the expression of IL-4
same,expression of INF-γ,"[4]; mouse, in vivo",increase the expression of INF-γ
same,IL-1β and MCP-1 inflammatory factors,[5]; compared with the virus model group,significantly reduced
same,IL-1β expression level in lung homogenate,[5]; 10 mg/kg gavage,20.88 ± 6.42
same,MCP-1 expression level in lung homogenate,[5]; 10 mg/kg gavage,18.71 ± 13.75
same,IL-1β expression level in lung homogenate,[5]; 20 mg/kg gavage,10.13 ± 6.68
same,MCP-1 expression level in lung homogenate,[5]; 20 mg/kg gavage,7.15 ± 9.36
